Test results published in ChEMBL document CHEMBL1201862, “PubChem BioAssay data set” (2004).
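Five concentrations, 48 hours, 96-well plates. GI50 marks 50% less growth.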 Active and inactive are the calls of the source. Cut-off read from the data, not from the text of the source: active = GI50 up to about 1.1 µM and inactive = higher.

What was measured:
Experiment in all cases: DTP human tumour cell line panel, 48 h
KM12 = test system: KM12
NCI/ADR-RES = test system: NCI/ADR-RES
SF-539 = test system: SF-539
NCI-H226 = test system: NCI-H226
UACC-62 = test system: UACC-62
SNB-75 = test system: SNB-75
ACHN = test system: ACHN
SN12C = test system: SN12C
MDA-MB-435 = test system: MDA-MB-435
LOX IMVI = test system: LOX IMVI
MOLT-4 = test system: MOLT-4
HT-29 = test system: HT-29
SF-268 = test system: SF-268
MDA-N = test system: MDA-N
CCRF-CEM = test system: CCRF-CEM
SK-MEL-5 = test system: SK-MEL-5
HOP-62 = test system: HOP-62
786-0 = test system: 786-0
COLO 205 = test system: COLO 205
A498 = test system: A498
HL-60 = test system: HL-60
SW-620 = test system: SW-620
DU-145 = test system: DU-145
K562 = test system: K562
SK-OV-3 = test system: SK-OV-3
HCC 2998 = test system: HCC 2998
Hs-578T = test system: Hs-578T
RXF 393 = test system: RXF 393
SF-295 = test system: SF-295
SK-MEL-28 = test system: SK-MEL-28
UO-31 = test system: UO-31
MCF7 = test system: MCF7
TK-10 = test system: TK-10
PC-3 = test system: PC-3
OVCAR-5 = test system: OVCAR-5
SK-MEL-2 = test system: SK-MEL-2
HCT-15 = test system: HCT-15
HOP-92 = test system: HOP-92
A549 = test system: A549
NCI-H460 = test system: NCI-H460
U-251 = test system: U-251
NCI-H522 = test system: NCI-H522
IGROV-1 = test system: IGROV-1
RPMI-8226 = test system: RPMI-8226
SR = test system: SR
OVCAR-3 = test system: OVCAR-3
T47D = test system: T47D
HCT-116 = test system: HCT-116
Malme-3M = test system: Malme-3M
NCI-H23 = test system: NCI-H23
SNB-19 = test system: SNB-19
M14 = test system: M14
MDA-MB-231 = test system: MDA-MB-231
BT-549 = test system: BT-549

With `C/C(=N\NC(=S)N1CCN(c2ccccn2)CC1)c1cccc(C)n1` the GI50 (KM12) was 3.1 µM (inactive), the GI50 (NCI/ADR-RES) was < 0.01 µM (active) and the GI50 (SF-539) was 1.27 µM (inactive). The GI50 (NCI-H226) was 2.06 µM (inactive), the GI50 (UACC-62) was 2.23 µM (inactive) and the GI50 (SNB-75) was 3.84 µM (inactive). For the same molecule, the GI50 (ACHN) was 3 µM (inactive), the GI50 (SN12C) was 7.98 µM (inactive) and the GI50 (MDA-MB-435) was 3.61 µM (inactive). For the same molecule, the GI50 (LOX IMVI) was 2.15 µM (inactive), the GI50 (MOLT-4) was < 0.01 µM (active) and the GI50 (HT-29) was < 0.01 µM (active). For the same molecule, the GI50 (SF-268) was 1.51 µM (inactive), the GI50 (MDA-N) was 3.14 µM (inactive) and the GI50 (CCRF-CEM) was < 0.01 µM (active). The GI50 (SK-MEL-5) was 1.53 µM (inactive), the GI50 (HOP-62) was 6.31 µM (inactive) and the GI50 (786-0) was 1.9 µM (inactive). The GI50 (COLO 205) was < 0.01 µM (active), the GI50 (A498) was 2.75 µM (inactive) and the GI50 (HL-60) was 0.0115 µM (active). For the same molecule, the GI50 (SW-620) was < 0.01 µM (active), the GI50 (DU-145) was 2.85 µM (inactive) and the GI50 (K562) was 0.585 µM (active). The GI50 (SK-OV-3) was 8.65 µM (inactive), the GI50 (HCC 2998) was 11.9 µM (inactive) and the GI50 (Hs-578T) was 12.6 µM (inactive). The GI50 (RXF 393) was 1.32 µM (inactive), the GI50 (SF-295) was 2.9 µM (inactive) and the GI50 (SK-MEL-28) was 7.1 µM (inactive). For the same molecule, the GI50 (UO-31) was 9.14 µM (inactive), the GI50 (MCF7) was < 0.01 µM (active) and the GI50 (TK-10) was 7.78 µM (inactive). For the same molecule, the GI50 (PC-3) was < 0.01 µM (active), the GI50 (OVCAR-5) was 4.03 µM (inactive) and the GI50 (SK-MEL-2) was 2.15 µM (inactive). The GI50 (HCT-15) was less than 0.01 µM, the GI50 (HOP-92) was 3.81 µM (inactive) and the GI50 (A549) was 3.48 µM (inactive). The GI50 (NCI-H460) was 1.03 µM (active), the GI50 (U-251) was < 0.01 µM (active) and the GI50 (NCI-H522) was 0.0421 µM (active). For the same molecule, the GI50 (IGROV-1) was < 0.01 µM (active), the GI50 (RPMI-8226) was < 0.01 µM (active) and the GI50 (SR) was 1.44 µM (inactive). For the same molecule, the GI50 (OVCAR-3) was < 0.01 µM (active), the GI50 (T47D) was 0.528 µM (active) and the GI50 (HCT-116) was < 0.01 µM (active). For the same molecule, the GI50 (Malme-3M) was 2.59 µM (inactive), the GI50 (NCI-H23) was 5.58 µM (inactive) and the GI50 (SNB-19) was 7.26 µM (inactive). The GI50 (M14) was 0.261 µM (active), the GI50 (MDA-MB-231) was < 0.01 µM (active) and the GI50 (BT-549) was 5.26 µM (inactive).
